Laboratory results published in patent US20220226480A1, “LIPID CONJUGATE PREPARED FROM SCAFFOLD MOIETY” (Integrated Nanotherapeutics Inc., priority 2019, published 2022).

What was measured:
[1] = Dissociation of pro-drugs from LNP after incubation in human plasma (size exclusion chromatography, UPLC); assay type: in vitro ADME; conditions: 10 mol % in LNP, 2 hours, 37° C. (FIG. 6A)
Text: The release of ricinoleyl-dexamethasone conjugates from LNP was examined using an assay involving human plasma, which contains lipoproteins as a lipid sink for lipid exchanges to occur. The plasma lacked active esterases that may digest the ricinoleyl-dexamethasone conjugates, which would in turn prevent the detection and monitoring of intact conjugates.
LNP formulations containing 10-99 mol % INT-D034, INT-D035, INT-D045, INT-D046, INT-0047, INT-D048 or INT-D049, INT-D050, INT-D051, INT-D053, INT-D083, INT-D085, INT-D086 or INT-D089 (see FIG. 3 and Example 7 for structures) were subjected to incubation in human plasma for 0, 2 or 24 hours at 37° C. at 1.2 mM total lipid. Size exclusion chromatography was performed to separate LNP from lipoproteins (1.5×27 cm Sepharose […] size exclusion column). Thirty fractions of 2 mL were collected and three volumes of isopropanol/methanol (1:1 v/v) were added to each fraction.
Drug-lipid conjugates were quantified by ultra high pressure liquid chromatography (UPLC) using a Water® Acquity™ UPLC system equipped with a photodiode array detector (PDA); Empower™ data acquisition software version 2.0 was used (Waters, USA). […] The method was run over 6 minutes with a column temperature of 55° C. and the analyte was measured by monitoring the PDA detector at a wavelength of 239 nm.

[2] = Encapsulation efficiency / incorporation of pro-drug in LNP; assay type: physicochemical; conditions: for Encapsulation Efficiency (%): LNP containing 10 mol % conjugate, primary PC-lipid DMPC; for % Entrapment: LNP formulations containing pro-drugs (10 mol %, FIG. 6A)
Protocol: (§1) LNPs were prepared by dissolving 1,2-Distearoyl-sn-glycero-3-phosphocholine (DSPC) or 1,2-dimyristoyl-sn-glycero-3-phosphocholine (DMPC), cholesterol and 1,2-Distearoyl-sn-glycero-3-phosphoethanolamine-Poly(ethylene glycol) (PEG-DSPE) in ethanol. DSPC, DMPC and PEG-DSPE were purchased from Avanti Polar Lipids (Alabaster, Ala.), and cholesterol was obtained from Sigma (St Louis, Mo.).
(§2) Drug-lipid-conjugates INT-D034, INT-D035, INT-D045, INT-D046, INT-D047, INT-D048, INT-D049, INT-D050, INT-D051, INT-D053, INT-D060, INT-D061, INT-D062, INT-D063, INT-D083, INT-D085, INT-D086, INT-D088 and INT-D089 (see FIG. 3 and Example 7 for structures) were dissolved in isopropanol or THF. LNP were prepared by rapidly mixing DSPC or DMPC, cholesterol, drug-lipid conjugate, and PEG-DSPE (in molar ratio of 49/40/10/1) with phosphate-buffered saline (PBS) using a cross-junction mixer. Formulations were dialyzed against PBS to remove residual ethanol. In formulation$ with more than 10 mol % drug-lipid conjugates, the amount of phospholipid or cholesterol was reduced accordingly.
(§3) The physiochemical properties of the LNPs prepared as described above were subsequently characterized. Particle size was determined by dynamic light scattering using a Malvern Zetasizer Nano ZS (Malvern, UK) following buffer exchange into phosphate-buffered saline. Number-weighted size and distribution date was used. Lipid concentrations were determined by measuring total cholesterol using the Cholesterol E enzymatic assay kit from Wako Chemicals USA (Richmond, Va.). The morphology of LNP formulations containing LD-DEX was analyzed by cryogenic-transmission electron microscopy (cryoTEM).

[3] = Particle size and polydispersity of LNP containing pro-drug (dynamic light scattering); assay type: physicochemical; design: Size of LNP: unit not given here; conditions: for Particle Diameter (nm) / Polydispersity index (PDI): LNP containing 10 mol % conjugate, primary PC-lipid DMPC
Protocol: as §1, §2, §3

[4] = test system: CD4+ T cells; assay: Mixed lymphocyte reaction (MLR) assay, BMDCs with allogeneic CD4+ T cells; assay type: cell-based, mice; conditions: LNP containing 10-99 mol % conjugate; BMDCs treated 48 hours, LPS 24 hours; 5:1 or 10:1 T-to-BMDC ratio; 3 days; flow cytometry
Protocol: Bone marrow derived dendritic cells (BMDCs) from C57Bl/6 male mice were first treated with LNP containing various mol % of the dexamethasone or calcitriol conjugates for 48 hours and then activated by incubation with LIPS for 24 hours. They were then harvested and mixed with CD4+ T cells isolated from Balb/cJ male mice (Jackson Laboratories) at 5:1 or 10:1 T-to-BMDC ratio.
Dexamethasone and calcitriol can tolerize antigen presenting cells (APCs). […] Bone marrow derived dendritic cells (BMDCs) from C57BI/6 male mice (Charles River) were first treated with LNP containing various mol % of dexamethasone or calcitriol conjugates for 48 hours and then activated by incubation with LPS for 24 hours. They were then harvested and mixed with CD4+ T cells isolated from Balb/cl male mice (Jackson Laboratories) at 5:1 or 10:1 T-to-BMDC ratio. The levels of T cells proliferation after 3 days were quantified using flow cytometry.

[5] = LNP formulations containing pro-drugs (10 mol %, FIG. 6A)
[6] = LNP, pro-drug concentration 10 %
[7] = LNP, pro-drug concentration 20 %
[8] = LNP, pro-drug concentration 80 %
[9] = LNP, pro-drug concentration 99 %
[10] = LNP, pro-drug concentration 60 %
[11] = LNP, pro-drug concentration 98 %
[12] = LNP, pro-drug concentration 90 %

Compound | pro-drug remained in LNP [1] | Encapsulation Efficiency (%) [2] | % Entrapment [2] | Particle Diameter (nm) [3] | Polydispersity index (PDI) [3] | PdI [3, 5] | Size of LNP [3, 5] | PdI [3, 6] | Size (nm) [3, 6] | PdI [3, 7] | Size (nm) [3, 7] | PdI [3, 8] | Size (nm) [3, 8] | PdI [3, 9] | Size (nm) [3, 9] | allogeneic T-cell proliferation [4] | further results
CCCCCC[C@H](C/C=C\CCCCCCCCOC(=O)CCC(=O)OCC(=O)[C@@]1(O)[C@H](C)C[C@H]2[C@@H]3CCC4=CC(=O)C=C[C@]4(C)[C@@]3(F)[C@@H](O)C[C@@]21C)OC(C)=O [INT-D047, (R,Z)-12-acetoxyoctadec-9-en-1-yl (2-((8S,9R,10S,11S,13S,14S,16R,17R)-9-fluoro-11,17-dihydroxy-10,13,16-trimethyl-3-oxo-6,7,8,9,10,11,12,13,14,15,16,17-dodecahydro-3H-cyclopenta[a]phenanthren-17-yl)-2-oxoethyl) succinate] | ~40% | 100% | 100% | 68 nm | 0.02 | 0.06 | 70 | – | – | – | – | – | – | – | – | – | –
(1R,3S,2)-3-hydroxy-5-(2-((1R,3aS,7aR,E)-1-((R)-6-hydroxy-6-methylheptan-2-yl)-7a-methyloctahydro-4H-inden-4-ylidene)ethylidene)-4-methylenecyclohexyl (R,Z)-12-acetoxyoctadec-9-enoate and (1S,5R,Z)-5-hydroxy-3-(2-((1R,3aS,7aR,E)-1-((R)-6-hydroxy-6-methylheptan-2-yl)-7a-methyloctahydro-4H-inden-4-ylidene)ethylidene)-2-methylenecyclohexyl(RA-12-acetoxyoctadec-9-enoate [INT-D053] | – | – | – | – | – | – | – | 0.081 | 54 nm | 0.052 | 56 nm | 0.029 | 106 nm | 0.018 | 98 nm | able to suppress allogeneic T-cell proliferation | –
CCCCC/C=C\C/C=C\CCCCCCCC(=O)OC(CCCCCCCC)C(CCCCCCCC(=O)OCC(=O)[C@@]1(O)[C@H](C)C[C@H]2[C@@H]3CCC4=CC(=O)C=C[C@]4(C)[C@@]3(F)[C@@H](O)C[C@@]21C)OC(=O)CCCCCCC/C=C\C/C=C\CCCCC (stereo partly drawn) [INT-D086, 1-(2-((8S,9R,10S,11S,13S,14S,16R,17R)-9-Fluoro-11,17-dihydroxy-10,13,16-trimethyl-3-oxo-6,7,8,9,10,11,12,13,14,15,16,17-dodecahydro-3H-cyclopenta[a]phenanthren-17-yl)-2-oxoethoxy)-1-oxooctadecane-9,10-diyl (9Z,9′Z,12Z,12′4)-bis(octadeca-9,12-dienoate)] | over 90% | – | 92% | – | – | 0.08 | 38 | 0.082 | 38 nm | 0.117 | 35 nm | 0.028 | 165 nm | 0.026 | 160 nm | – | PdI [3, 10]: 0.036; Size (nm) [3, 10]: 82 nm
CCCCCCCCCCCCCCCCCC(=O)O[C@@H](C/C=C\CCCCCCCCOC(=O)CCC(=O)OCC(=O)[C@@]1(O)[C@H](C)C[C@H]2[C@@H]3CCC4=CC(=O)C=C[C@]4(C)[C@@]3(F)[C@@H](O)C[C@@]21C)CCCCCC [INT-D050, 2-((8S,9R,10S,11S,13S,14S,16R,17R)-9-fluoro-11,17-dihydroxy-10,13,16-trimethyl-3-oxo-6,7,8,9,10,11,12,13,14,15,16,17-dodecahydro-3H-cyclopenta[a]phenanthren-17-yl)-2-oxoethyl ((R,Z)-12-(stearoyloxy)octadec-9-en-1-yl) succinate] | – | 97% | 90% | 61 nm | 0.04 | 0.05 | 60 | – | – | – | – | 0.01 | 101 nm | 0.01 | 105 nm | – | PdI [3, 11]: 0.02; Size (nm) [3, 11]: 61 nm
CCCCC/C=C\C/C=C\CCCCCCCC(=O)O[C@@H](C/C=C\CCCCCCCCOC(=O)CCC(=O)OCC(=O)[C@@]1(O)[C@H](C)C[C@H]2[C@@H]3CCC4=CC(=O)C=C[C@]4(C)[C@@]3(F)[C@@H](O)C[C@@]21C)CCCCCC [INT-D045, 2-((8S,9R,10S,11S,13S,14S,16R,17R)-9-fluoro-11,17-dihydroxy-10,13,16-trimethyl-3-oxo-6,7,8,9,10,11,12,13,14,15,16,17-dodecahydro-3H-cyclopenta[a]phenanthren-17-yl)-2-oxoethyl ((R,Z)-12-(linoleoyloxy)octadec-9-en-1-yl) succinate] | – | 99% | 100% | 68 nm | 0.03 | 0.03 | 64 | 0.076 | 46 nm | 0.073 | 48 nm | 0.033 | 69 nm | 0.045 | 75 nm | able to suppress allogeneic T-cell proliferation | PdI [3, 12]: 0.054; Size (nm) [3, 12]: 74 nm
